Values of other authors in patent US6365601B1, “Process for extraction of piperine from piper species” (Council of Scientific and Industrial Research, priority 1999, dated 2002).

Details: Reen and Rashmet, J. Ethnopharmacol., 1997

O=C(/C=C/C=C/c1ccc2c(c1)OCO2)N1CCCCC1 [Piperine]
chemoprotective effect against procarcinogens: potent chemoprotective effect
